The record followed here is US20140090094A1, “MODULATORS OF SLC22A7” (BAYER INTELLECTUAL PROPERTY GmbH, priority 2011, published 2014).

For assay [1], the target named is T1, OAT3h (Homo sapiens, UniProt Q8TCC7).
T1 construct: expressed in transfected cells; host or cells: 293 cells (HEK-293)
T1 sequence (Q8TCC7 1-542): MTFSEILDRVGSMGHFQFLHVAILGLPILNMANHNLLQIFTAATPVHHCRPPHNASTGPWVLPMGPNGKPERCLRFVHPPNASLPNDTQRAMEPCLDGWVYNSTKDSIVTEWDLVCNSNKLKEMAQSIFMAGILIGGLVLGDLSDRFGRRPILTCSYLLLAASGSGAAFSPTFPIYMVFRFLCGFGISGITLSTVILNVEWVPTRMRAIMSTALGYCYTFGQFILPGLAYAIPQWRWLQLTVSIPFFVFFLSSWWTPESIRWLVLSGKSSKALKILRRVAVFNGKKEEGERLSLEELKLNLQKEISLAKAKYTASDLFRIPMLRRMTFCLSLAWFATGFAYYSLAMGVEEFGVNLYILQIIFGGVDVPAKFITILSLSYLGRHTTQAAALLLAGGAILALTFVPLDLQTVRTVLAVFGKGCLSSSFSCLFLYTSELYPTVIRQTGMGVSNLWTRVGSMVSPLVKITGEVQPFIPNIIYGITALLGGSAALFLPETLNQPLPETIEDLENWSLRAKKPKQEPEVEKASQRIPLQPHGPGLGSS
The assay is described as follows: 1 min uptake into 293 cells expressing OAT3h. It is filed as cell-based. Particulars: for clearance: 1 min uptake, 0.1 μmol/l radiotracer. Here is the method:
Uptake was measured at 37° C.

Assay [2] relates to 293 cells. The assay is described as follows: uptake into uninduced control 293 cells (expression off). Format: cell-based, human. Particulars: for clearance kin: 10 μmol/l unlabeled substrate. The protocol: Time course of trigonelline uptake. Cells grown in dishes were incubated at 37° C. with 10 μmol/l unlabeled trigonelline in uptake buffer for the indicated periods, washed, and lysed. The function for non-linear regression was y=y0+kin/kout*cout*(1−exp(−kout*x)); parameter y0 allows for trigonelline accumulation from the culture medium.
293 cells (ATCC CRL-1573; also known as HEK-293 cells), a transformed cell line derived from human embryonic kidney, were grown at 37° C. in a humidified atmosphere (5% CO2) in plastic culture flasks (Falcon 3112, Becton Dickinson, Heidelberg, Germany). The growth medium was Dulbecco's Modified Eagle Medium (Life Technologies 31885-023, Invitrogen, Karlsruhe, Germany) supplemented with 10% fetal calf serum (PAA Laboratories, Cölbe, Germany). Medium was changed every 2-3 days and the culture was split every 5 days. Stably transfected cell lines were generated as reported previously (Bach M et al. FEBS Journal 2007; 274:783-790.). As there is no integration of vector pEBTetD into the genome, clonal isolation of transfected cells is not necessary; we thus use cell pools rather than single cell clones. Cell culture medium always contained 3 μg/ml puromycin (PAA Laboratories) to ascertain plasmid maintenance. To turn on protein expression, cells were cultivated for at least 20 h in regular growth medium supplemented with 1 μg/ml doxycycline (195044, MP Biomedicals, Eschwege, Germany).
For measurement of solute uptake, cells were grown in surface culture on 60 mm polystyrol dishes (Nunclon 150288, Nunc, Roskilde, Denmark) precoated with 0.1 g/l poly-L-ornithine in 0.15 M boric acid-NaOH, pH 8.4. Cells were used for uptake experiments at a confluence of at least 70%. Uptake was measured at 37° C. Uptake buffer contains 125 mmol/l NaCl, 25 mmol/l HEPES-NaOH pH 7.4, 5.6 mmol/l (+)glucose, 4.8 mmol/l KCl, 1.2 mmol/l KH2PO4, 1.2 mmol/l CaCl2, and 1.2 mmol/l MgSO4. In glutamate efflux experiments, uptake buffer without KH2PO4 was used to avoid MS interference. After preincubation for at least 20 minutes in 4 ml of uptake buffer, the buffer was replaced with 2 ml of substrate in uptake buffer. The total substrate concentration if not indicated otherwise was 0.1 μmol/l for radiotracer assays and 10 μmol/l for unlabeled compounds. Incubation was stopped after 1 min by rinsing the cells four times each with 4 ml ice-cold uptake buffer. Radioactivity was determined, after cell lysis with 0.1% v/v Triton X-100 in 5 mmol/l TRIS-HCl pH 7.4, by liquid scintillation counting. For LCelectrospray ionization-MS/MS analysis, cells were lysed with methanol and stored at −20° C.
After centrifugation (1 min, 16000×g, 20° C.) of thawed lysates, 100 μl of the supernatant was mixed with either 10 μl unlabeled MPP+ iodide (0.5 ng/μl) or biphenyl-4-carboxylic acid (Sigma-Aldrich) as internal standard. Of this mixture, […] were analyzed by LCMS/MS on a triple quadrupole mass spectrometer (4000 Q TRAP, Applied Biosystems, Darmstadt, Germany). […] Atmospheric pressure ionization with positive or negative electrospray was used. For quantification (scan time 150 ms), the optimal collision energy for argon-induced fragmentation in the second quadrupole was determined for each analyte. […] Linear calibration curves were constructed from at least six standards which were prepared using control cell lysates as solvent. Sample analyte content was calculated from the analyte response ratio and the slope of the calibration curve, obtained by linear regression. With LC-MS quantitation, solute content of cell lysates was determined for 4 conditions (paired dishes, incubation time 1 min): a) transporter expression on, uptake buffer; b) expression off, uptake buffer; c) expression on, substrate in uptake buffer; d) expression off, substrate in uptake buffer. Acute uptake mediated by heterologously expressed carrier was then calculated as (c−a)−(d−b). This approach takes into account endogenous solute content and non-specific uptake.

Assay [3] deals with OAT2h splice variant (Homo sapiens, UniProt Q9Y694). Particulars: 24 h incubation, 100 μmol/l in uptake buffer. The protocol:
A substrate search by LC-MS difference shading was performed with 293 cells stably transfected to express OAT2 from rat. […] To verify that trigonelline is directly transported by OAT2 and not just increased indirectly, initial rates of uptake (1 min, 37° C.) of trigonelline (10 μmol/l) were determined by LC-MS/MS.
After centrifugation (1 min, 16000×g, 20° C.) of thawed lysates, 100 μl of the supernatant was mixed with either 10 μl unlabeled MPP+ iodide (0.5 ng/μl) or biphenyl-4-carboxylic acid (Sigma-Aldrich) as internal standard. Of this mixture, […] were analyzed by LCMS/MS on a triple quadrupole mass spectrometer (4000 Q TRAP, Applied Biosystems, Darmstadt, Germany). […] For quantification (scan time 150 ms), the optimal collision energy for argon-induced fragmentation in the second quadrupole was determined for each analyte. […] Sample analyte content was calculated from the analyte response ratio and the slope of the calibration curve, obtained by linear regression. With LC-MS quantitation, solute content of cell lysates was determined for 4 conditions (paired dishes, incubation time 1 min): a) transporter expression on, uptake buffer; b) expression off, uptake buffer; c) expression on, substrate in uptake buffer; d) expression off, substrate in uptake buffer. Acute uptake mediated by heterologously expressed carrier was then calculated as (c−a)−(d−b). […]

Setting [4] is: time course, uninduced control cells.

Molecules are shown by their SMILES.

With `N[C@@H](CCC(=O)O)C(=O)O` [glutamate], in assay [1], the “transport of glutamate (in words)” value is recorded as “do not transport” and the clearance was 0.2±0.6 μl min-1 mg protein-1.
In assay [1], `O=C(O)c1cc(=O)[nH]c(=O)[nH]1` [orotic acid] showed a clearance of 0.7±0.1 μl min-1 mg protein-1. In assay [2] (10 μmol/l unlabeled orotic acid, after 60 min, cells lacking the transporter), this molecule showed an intracellular content of 0.05 nmol/mg protein. In addition, the “cell content directly after washing” value in assay [2] (1 h, 37° C. preloading with 100 μmol/l 3H-orotic acid, uninduced control cells, n=4) stood at 3.5±0.1 nmol/mg protein. Also, the “non-specific uptake into control cells, slope” value in assay [2] (saturation experiment, 1 min, expression off) came out at 0.56 μl min-1 mg protein-1. Further, the clearance kin in assay [2] (setting [4]) is 0.58±0.12 μl min-1 mg protein-1. For the same molecule, the kout in assay [2] (time course, unlabeled orotic acid, expression off) was 0.12 ± 0.03 min⁻¹.
On to `C[n+]1cccc(C(=O)[O-])c1` [trigonelline], for which the “increase in cell lysates versus control cells (factor f)” value in assay [3] is recorded as 3.9. The molecule also had a clearance kin in assay [2] (setting [4]) of 0.11±0.01 μl min-1 mg protein-1.
